Data: ChEMBL document CHEMBL1201862, “PubChem BioAssay data set” (2004)
The source made the active and inactive calls.

Assays:
HEK293 = experiment: inhibitors of LMP1-driven NF-kB reporter, dose response, cell-based, HEK293, luciferase, cherry-pick (AID 588343); format: functional; settings: Homo sapiens
[1] = target: SWI/SNF-related matrix-associated actin-dependent regulator of chromatin subfamily A member 2 (Homo sapiens, UniProt P51531); experiment: Luminescence-based cell-based high throughput dose response assay to identify activators of the function of SWI/SNF related, matrix associated, actin dependent regulator of chromatin, subfamily a, member 2 (SMARCA2, BRM).; format: functional
Sequence of SWI/SNF-related matrix-associated actin-dependent regulator of chromatin subfamily A member 2 (P51531 whole entry): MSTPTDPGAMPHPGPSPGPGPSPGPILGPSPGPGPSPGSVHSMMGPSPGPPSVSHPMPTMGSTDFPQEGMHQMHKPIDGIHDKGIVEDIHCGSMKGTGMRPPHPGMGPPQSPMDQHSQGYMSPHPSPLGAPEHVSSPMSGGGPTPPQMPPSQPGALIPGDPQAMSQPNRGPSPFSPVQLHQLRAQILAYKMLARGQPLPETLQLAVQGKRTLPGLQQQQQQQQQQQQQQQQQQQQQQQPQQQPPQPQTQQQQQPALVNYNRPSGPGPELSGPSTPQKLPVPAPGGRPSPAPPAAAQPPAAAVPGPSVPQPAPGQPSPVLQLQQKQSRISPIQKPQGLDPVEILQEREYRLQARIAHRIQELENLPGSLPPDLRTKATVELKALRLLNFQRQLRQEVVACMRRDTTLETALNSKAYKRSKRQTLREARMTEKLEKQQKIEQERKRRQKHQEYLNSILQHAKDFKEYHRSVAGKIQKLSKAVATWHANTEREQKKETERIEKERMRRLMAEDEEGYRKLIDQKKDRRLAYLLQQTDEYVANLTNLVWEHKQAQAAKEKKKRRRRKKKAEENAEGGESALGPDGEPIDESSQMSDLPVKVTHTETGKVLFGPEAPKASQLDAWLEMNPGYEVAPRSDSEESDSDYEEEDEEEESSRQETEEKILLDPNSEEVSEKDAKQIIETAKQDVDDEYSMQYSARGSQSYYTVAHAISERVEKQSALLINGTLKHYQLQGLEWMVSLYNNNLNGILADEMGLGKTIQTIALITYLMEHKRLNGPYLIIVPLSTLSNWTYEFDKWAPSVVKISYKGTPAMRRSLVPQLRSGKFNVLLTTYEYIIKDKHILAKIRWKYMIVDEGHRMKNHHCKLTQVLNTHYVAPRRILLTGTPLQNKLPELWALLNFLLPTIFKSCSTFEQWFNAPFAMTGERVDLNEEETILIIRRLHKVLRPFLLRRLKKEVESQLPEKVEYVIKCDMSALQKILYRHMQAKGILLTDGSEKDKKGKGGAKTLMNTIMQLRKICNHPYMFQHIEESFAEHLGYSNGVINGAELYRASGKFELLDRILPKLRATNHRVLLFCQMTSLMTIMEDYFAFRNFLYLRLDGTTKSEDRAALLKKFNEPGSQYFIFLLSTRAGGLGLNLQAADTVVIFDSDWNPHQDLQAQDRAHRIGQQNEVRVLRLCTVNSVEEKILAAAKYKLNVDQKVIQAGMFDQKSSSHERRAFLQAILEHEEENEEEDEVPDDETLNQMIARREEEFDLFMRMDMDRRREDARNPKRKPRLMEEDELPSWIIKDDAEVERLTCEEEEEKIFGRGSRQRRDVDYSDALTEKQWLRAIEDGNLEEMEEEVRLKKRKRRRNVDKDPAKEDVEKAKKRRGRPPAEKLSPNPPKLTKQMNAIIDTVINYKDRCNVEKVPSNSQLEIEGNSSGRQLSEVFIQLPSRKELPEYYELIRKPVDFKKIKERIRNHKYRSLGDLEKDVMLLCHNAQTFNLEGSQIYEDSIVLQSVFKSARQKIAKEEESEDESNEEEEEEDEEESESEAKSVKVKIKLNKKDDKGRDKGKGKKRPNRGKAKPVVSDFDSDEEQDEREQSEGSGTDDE

[2] = Counterscreen for activators of the function of SWI/SNF related, matrix associated, actin dependent regulator of chromatin, subfamily a, member 2 (SMARCA2, BRM): Luminescence-based cell-based high throughput dose response assay to identify non-selective compounds using the VP16 reporter assay.; format: functional
[3] = target: T1, Fructose-bisphosphate aldolase (Mycobacterium tuberculosis, UniProt P9WQA3); experiment: Fluorescence-based biochemical high throughput dose response assay for inhibitors of the fructose-bisphosphate aldolase (FBA) of M. tuberculosis.; format: functional
T1 sequence (P9WQA3 whole entry): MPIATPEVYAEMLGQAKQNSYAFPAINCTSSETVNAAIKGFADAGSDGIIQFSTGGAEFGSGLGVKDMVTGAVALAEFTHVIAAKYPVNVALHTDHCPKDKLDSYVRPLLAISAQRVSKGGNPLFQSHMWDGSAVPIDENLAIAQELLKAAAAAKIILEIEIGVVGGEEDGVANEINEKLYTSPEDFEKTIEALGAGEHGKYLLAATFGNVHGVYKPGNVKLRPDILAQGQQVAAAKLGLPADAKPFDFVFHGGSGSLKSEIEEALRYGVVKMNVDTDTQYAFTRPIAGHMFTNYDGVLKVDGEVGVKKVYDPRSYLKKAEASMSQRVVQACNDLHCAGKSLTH

[4] = inhibitors of intracellular T. cruzi replication, confirmation, NIH3T3 host cells, beta-gal luminescence (AID 2044); format: functional, cell-based;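 note: intracellular parasites grown in NIH/3T3 mouse fibroblasts as host cells; luminescent beta-galactosidase reporter signal from transgenic T. cruzi replicating inside host cells; inhibitors lower the luminescence signal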
[5] = cytotoxicity toward NIH3T3 fibroblasts, dose response, counter-screen, cell-based, ATP luminescence, mouse fibroblasts (AID 2010); format: functional;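 note: cells exposed to compound for about 90 hours before reading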
Caspase-3 = target: T2, Caspase-3 (Homo sapiens, UniProt P42574); format: functional;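 note: Dose-response selectivity test against caspase-3 for candidate inhibitors of sentrin-specific proteases (SENPs)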
T2 sequence (P42574 whole entry): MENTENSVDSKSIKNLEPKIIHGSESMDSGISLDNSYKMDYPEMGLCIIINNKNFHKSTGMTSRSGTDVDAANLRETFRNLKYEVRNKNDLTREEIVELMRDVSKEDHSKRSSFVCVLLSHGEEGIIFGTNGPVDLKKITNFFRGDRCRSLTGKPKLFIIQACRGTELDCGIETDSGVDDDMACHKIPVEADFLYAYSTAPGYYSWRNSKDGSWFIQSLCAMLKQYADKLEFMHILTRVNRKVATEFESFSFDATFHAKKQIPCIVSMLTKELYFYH

[6] = target: T3, Sentrin-specific protease 7 (Homo sapiens, UniProt Q9BQF6); format: functional;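 note: Luminescence-based dose-response confirmation of ultra-high-throughput screening hits, measuring inhibition of SENP7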
T3 sequence (Q9BQF6 whole entry): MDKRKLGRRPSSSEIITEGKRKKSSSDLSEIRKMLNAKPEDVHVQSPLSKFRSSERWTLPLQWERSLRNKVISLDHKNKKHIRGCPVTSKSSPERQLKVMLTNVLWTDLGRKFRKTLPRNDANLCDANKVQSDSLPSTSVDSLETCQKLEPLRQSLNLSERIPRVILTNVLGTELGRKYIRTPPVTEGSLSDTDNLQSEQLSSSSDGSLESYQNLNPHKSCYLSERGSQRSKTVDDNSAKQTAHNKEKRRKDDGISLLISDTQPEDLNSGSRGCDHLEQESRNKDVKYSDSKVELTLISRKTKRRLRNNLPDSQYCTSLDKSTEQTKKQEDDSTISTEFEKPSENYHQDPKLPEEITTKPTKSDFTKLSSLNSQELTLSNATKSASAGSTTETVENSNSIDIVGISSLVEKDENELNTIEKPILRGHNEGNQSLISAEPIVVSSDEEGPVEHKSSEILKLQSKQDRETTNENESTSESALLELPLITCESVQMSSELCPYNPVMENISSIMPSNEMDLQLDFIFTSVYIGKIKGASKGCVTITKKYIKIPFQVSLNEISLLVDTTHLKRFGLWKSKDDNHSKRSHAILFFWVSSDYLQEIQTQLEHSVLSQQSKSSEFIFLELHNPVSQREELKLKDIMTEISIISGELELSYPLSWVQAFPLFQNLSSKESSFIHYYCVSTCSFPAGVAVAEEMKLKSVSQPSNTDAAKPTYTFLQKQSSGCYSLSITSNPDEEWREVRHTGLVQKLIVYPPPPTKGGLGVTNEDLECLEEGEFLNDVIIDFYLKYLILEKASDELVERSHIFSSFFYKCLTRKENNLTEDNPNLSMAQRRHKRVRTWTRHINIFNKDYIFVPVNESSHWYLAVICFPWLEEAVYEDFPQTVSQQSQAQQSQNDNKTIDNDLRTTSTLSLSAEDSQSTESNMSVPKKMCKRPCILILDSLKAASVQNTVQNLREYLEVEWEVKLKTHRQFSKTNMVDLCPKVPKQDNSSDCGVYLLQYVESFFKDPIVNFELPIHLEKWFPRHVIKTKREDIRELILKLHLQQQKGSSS

[7] = target: T4, Sentrin-specific protease 6 (Homo sapiens, UniProt Q9GZR1); format: functional;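 note: Luminescence-based dose-response confirmatory assay of SENP6 inhibition, following up an ultra-high-throughput screen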
T4 sequence (Q9GZR1 whole entry): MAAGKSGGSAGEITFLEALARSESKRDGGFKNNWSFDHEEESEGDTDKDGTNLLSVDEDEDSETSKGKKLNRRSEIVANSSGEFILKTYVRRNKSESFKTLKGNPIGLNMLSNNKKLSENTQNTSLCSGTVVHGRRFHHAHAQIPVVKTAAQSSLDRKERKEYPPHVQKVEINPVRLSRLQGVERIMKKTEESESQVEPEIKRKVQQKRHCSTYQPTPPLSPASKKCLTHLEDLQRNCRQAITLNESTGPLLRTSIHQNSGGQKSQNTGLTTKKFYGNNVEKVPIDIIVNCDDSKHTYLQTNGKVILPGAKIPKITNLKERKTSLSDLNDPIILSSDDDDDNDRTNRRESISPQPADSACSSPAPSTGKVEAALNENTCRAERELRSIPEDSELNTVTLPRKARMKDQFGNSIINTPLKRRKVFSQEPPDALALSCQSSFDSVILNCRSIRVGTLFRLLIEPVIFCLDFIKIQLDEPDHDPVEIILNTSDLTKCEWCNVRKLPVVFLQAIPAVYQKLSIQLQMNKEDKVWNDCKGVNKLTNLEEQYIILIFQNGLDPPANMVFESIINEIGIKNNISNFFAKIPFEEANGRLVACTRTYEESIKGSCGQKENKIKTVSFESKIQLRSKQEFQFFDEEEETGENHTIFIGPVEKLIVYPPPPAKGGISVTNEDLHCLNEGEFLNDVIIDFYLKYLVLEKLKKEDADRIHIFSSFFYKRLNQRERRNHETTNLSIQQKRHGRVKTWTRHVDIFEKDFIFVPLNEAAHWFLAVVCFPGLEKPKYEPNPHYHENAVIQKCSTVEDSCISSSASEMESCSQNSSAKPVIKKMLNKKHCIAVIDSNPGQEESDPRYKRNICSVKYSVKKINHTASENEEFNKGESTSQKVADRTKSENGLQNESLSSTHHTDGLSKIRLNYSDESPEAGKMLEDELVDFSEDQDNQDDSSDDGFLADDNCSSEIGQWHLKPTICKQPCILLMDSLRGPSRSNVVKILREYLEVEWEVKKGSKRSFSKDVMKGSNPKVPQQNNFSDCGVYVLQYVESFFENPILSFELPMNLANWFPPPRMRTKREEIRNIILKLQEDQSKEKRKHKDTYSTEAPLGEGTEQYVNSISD

[8] = target: T5, Sentrin-specific protease 8 (Homo sapiens, UniProt Q96LD8); format: functional;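 note: luminescence read-out of SENP8 inhibition, dose-response confirmation following an ultra-high-throughput screen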
T5 sequence (Q96LD8 whole entry): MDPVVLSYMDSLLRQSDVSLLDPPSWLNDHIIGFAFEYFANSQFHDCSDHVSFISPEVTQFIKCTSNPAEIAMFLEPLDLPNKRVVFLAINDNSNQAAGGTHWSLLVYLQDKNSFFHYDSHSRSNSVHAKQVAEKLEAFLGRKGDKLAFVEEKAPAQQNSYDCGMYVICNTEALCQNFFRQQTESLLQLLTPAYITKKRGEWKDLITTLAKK

[9] = A549 cell cytotoxicity, dose response, cytotoxicity control, plate reader, cherry-pick, antagonist series (AID 743412); format: functional, cell-based
[10] = LGR2 antagonists, dose response, cell-based, HEK293, CRE-luciferase reporter, cherry pick, set 2 (AID 743343); format: functional;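 note: transfected cells were stimulated with diluted bursicon conditioned medium after compound addition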
[11] = MC4R antagonists, dose response, counter-screen for LGR2 antagonist project, cell-based, plate reader, cherry pick (AID 743444); format: functional;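 note: transfected HEK 293 cells stimulated with alpha-MSH peptide; potency of inhibitors of the alpha-MSH evoked signal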
[12] = inhibitors of firefly luciferase expression or activity, dose response, H4 neuroglioma cells, luminescence (AID 1990); format: functional, cell-based
BJ [13] = experiment: cytotoxicity toward BJ-TERT fibroblasts, dose response, cell-based, RAS-independent, luminescence (AID 1933); format: functional; settings: Homo sapiens
[14] = Luminescence Cell-Based Dose Response HTS to Identify Inhibitors of 5'UTR Stem-Loop Driven Prion Protein mRNA Translation in H4 Neuroglioblastoma Cells. [Related pubchem assays: 1827 (Project Summary), 1813 (Primary HTS)]; format: functional
BJ [15] = experiment: cells; format: functional, cell-based; settings: Homo sapiens
BJ [16] = experiment: cytotoxicity toward BJ-TERT-LT-ST fibroblasts, dose response, cell-based, RAS-independent, luminescence (AID 1935); format: functional; settings: Homo sapiens;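 note: BJ fibroblasts immortalized with TERT plus LT and ST oncogenes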
[17] = cytotoxicity toward DRD oncogenic fibroblasts, dose response, cell-based, non-viral oncogenic, luminescence (AID 1934); format: functional; settings: Homo sapiens
[18] = cytotoxicity in HEK-293T cells, dose response, cytotoxicity control for TCR NF-kB inhibitor project, luminescence, T-cell screen hits (AID 489026); format: functional, cell-based;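 note: cells exposed to compound about 14 hours before the viability readout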
Vero = experiment: cells; format: functional; settings: Chlorocebus sabaeus
[19] = target: Glucose-6-phosphate 1-dehydrogenase (Homo sapiens, UniProt P11413); experiment: human G6PD enzyme inhibitors, dose response, selectivity assay for P. falciparum G6PD inhibitor project, biochemical, fluorescence (AID 504792); format: functional
Sequence of Glucose-6-phosphate 1-dehydrogenase (P11413 whole entry): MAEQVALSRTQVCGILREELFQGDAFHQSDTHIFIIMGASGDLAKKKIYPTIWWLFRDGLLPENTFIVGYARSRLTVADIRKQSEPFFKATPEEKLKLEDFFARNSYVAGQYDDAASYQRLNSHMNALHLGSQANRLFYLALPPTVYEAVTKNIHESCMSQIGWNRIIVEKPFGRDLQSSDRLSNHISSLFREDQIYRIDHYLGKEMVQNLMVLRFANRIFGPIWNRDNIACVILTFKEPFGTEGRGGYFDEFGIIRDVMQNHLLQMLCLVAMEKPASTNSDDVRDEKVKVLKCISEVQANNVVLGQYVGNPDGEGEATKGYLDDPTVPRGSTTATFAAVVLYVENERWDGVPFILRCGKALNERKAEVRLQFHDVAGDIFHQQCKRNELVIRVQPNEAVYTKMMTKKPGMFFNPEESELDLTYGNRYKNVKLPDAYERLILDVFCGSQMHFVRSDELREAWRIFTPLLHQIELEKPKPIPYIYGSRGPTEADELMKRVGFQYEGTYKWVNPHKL

[20] = target: T6, Rac GTPase-activating protein 1 (Homo sapiens, UniProt Q9H0H5); experiment: MgcRacGAP GTPase-activating activity inhibitors, confirmation, biochemical, ADP Hunter fluorescence, primary and confirmatory (AID 624330); format: functional
T6 sequence (Q9H0H5 whole entry): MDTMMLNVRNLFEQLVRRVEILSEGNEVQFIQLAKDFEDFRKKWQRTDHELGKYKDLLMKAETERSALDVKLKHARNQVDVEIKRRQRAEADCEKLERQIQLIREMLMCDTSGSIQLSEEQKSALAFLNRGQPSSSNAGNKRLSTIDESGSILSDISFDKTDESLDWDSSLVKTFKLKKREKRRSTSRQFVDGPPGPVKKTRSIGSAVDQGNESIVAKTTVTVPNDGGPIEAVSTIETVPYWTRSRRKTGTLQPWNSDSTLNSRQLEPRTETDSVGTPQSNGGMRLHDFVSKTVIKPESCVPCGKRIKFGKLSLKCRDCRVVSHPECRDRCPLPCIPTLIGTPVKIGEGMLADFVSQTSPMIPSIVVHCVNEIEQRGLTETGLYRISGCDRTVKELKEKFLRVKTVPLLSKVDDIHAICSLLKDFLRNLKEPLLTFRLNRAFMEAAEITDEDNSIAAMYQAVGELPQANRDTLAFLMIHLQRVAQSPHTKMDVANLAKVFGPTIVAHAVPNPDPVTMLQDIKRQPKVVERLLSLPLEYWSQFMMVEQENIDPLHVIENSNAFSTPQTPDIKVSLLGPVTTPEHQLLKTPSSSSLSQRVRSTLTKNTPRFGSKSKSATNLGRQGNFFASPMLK

[21] = HEp-2 cell cytotoxicity, dose response, cytotoxicity control for RSV inhibitor project, HTS (AID 2410); format: functional; settings: human respiratory syncytial virus
[22] = microbe, parasite or virus in culture; format: functional; settings: Mycobacterium tuberculosis

C=CCn1c(C)c(C(C)=O)c(N2CCN(C(c3ccccc3)c3ccccc3)CC2)nc1=S
AC50 (HEK293): 63.8 µM (active)

COc1cc(OC)cc(-c2nc3ccccc3s2)c1
EC50 [1]: > 91.1 µM (inactive) | EC50 [2]: > 91.1 µM (inactive)

COc1ccc2nc3c(O)n(Cc4ccncc4)cnc-3c2c1
IC50 [3]: 0.97 µM (active)

O=C(Oc1c(CN2CCOCC2)cc(Cl)c2cccnc12)c1ccccc1F
EC50 [4]: 1.65 µM (active) | EC50 [5]: 8.05 µM (active) | EC50 [1]: > 91.2 µM (inactive) | EC50 [2]: > 91.2 µM (inactive)

COC(=O)/C=C/C(=O)Nc1cccc(C(F)(F)F)c1
AC50 (HEK293): 11.1 µM (active)

O=C(Nc1ccccc1)N1CC=C(c2ccc(F)cc2)CC1
IC50 (Caspase-3): 34.3 µM (active) | IC50 [6]: 14.9 µM (active) | IC50 [7]: 54.5 µM (active) | IC50 [8]: 86.8 µM (active)

COc1ccc(NC(=O)c2ccc(-c3ccccc3Cl)o2)cc1
IC50 (Caspase-3): 16.2 µM (active) | IC50 [6]: 4.54 µM (active) | IC50 [7]: 4.21 µM (active) | IC50 [8]: > 100 µM (inactive)

Cc1ccc(C(=O)Nc2ccc3c(c2)OCCO3)cc1
AC50 (HEK293): 2.05 µM (active) | AC50 [9]: > 52 µM (inactive) | AC50 [10]: 2.67 µM (active) | AC50 [11]: 4.05 µM (active)

O=C(CNC(=O)c1ccco1)N=Nc1c(O)n(CCc2ccccc2)c2ccccc12
EC50 [12]: 12.2 µM (active) | EC50 (BJ [13]): 3.21 µM (active) | EC50 [14]: > 120 µM (not active) | EC50 (BJ [15]): 17.7 µM (active) | EC50 (BJ [16]): 1.45 µM (active) | EC50 [17]: 2.05 µM (active) | IC50 [18]: > 80 µM (inactive) | CC50 (Vero): 2.46 µM (active)

COc1cc(N)c2ncccc2c1OC
IC50 [19]: > 80 µM (inactive) | IC50 [20]: 56.3 µM (active)

O=C1C(=O)N(c2ccccc2)C(c2ccccc2)C1c1ccccc1 (stereo unspecified)
IC50 [3]: > 9.99 µM (inactive)

O=C1NC(=O)/C(=C/c2ccc(-c3cccc([N+](=O)[O-])c3)o2)S1
CC50 [21]: 1.93 µM (active) | CC50 [22]: > 40 µM (active) | IC50 (Caspase-3): 13.6 µM (active) | IC50 [6]: 50.7 µM (active) | IC50 [7]: 17 µM (active) | IC50 [8]: 55.7 µM (active)

CC/N=c1\sc(C(=O)OC)cc(=O)n1CC
EC50 [1]: > 91.2 µM (inactive) | EC50 [2]: > 91.2 µM (inactive)

COc1cc(C(=O)N/N=C/c2cccc(Oc3ccccc3)c2)ccc1O
CC50 (Vero): > 25 µM (active)
